Experimental data taken from patent US20230346777A1, “USE OF SGC ACTIVATORS FOR THE TREATMENT OF OPHTHALMOLOGIC DISEASES” (Bayer Aktiengesellschaft, priority 2020, published 2023).
Structures can show the parent of a compound that is named as a salt.

Legend:
[1] = Pharmacokinetic parameters following intravenous and oral administration in rats; type: in vivo, male Wistar rats; details: for clearance: read-out: CLplasma (converted); for half-life: read-out: t½ (converted)
Procedure: (§1) B-2. Determination of Pharmacokinetic Parameters Following Intravenous and Oral Administration
(§2) The pharmacokinetic parameters of the compounds according to the invention were determined in male Wistar rats and/or in female beagles and/or in cynomolgus monkeys and/or in male CD-1 mice. Intravenous administration in the case of mice and rats was carried out by means of a species-specific plasma/DMSO formulation, and in the case of dogs and monkeys by means of a water/PEG400/ethanol formulation. In all species, oral administration of the dissolved substance was performed via gavage, based on a water/PEG400/ethanol formulation.
(§3) An internal standard (which may also be a chemically unrelated substance) was added to the samples of the compounds of the invention, calibration samples and qualifiers, and there followed protein precipitation by means of acetonitrile in excess. Addition of a buffer solution matched to the LC conditions, and subsequent vortexing, was followed by centrifugation at 1000 g. The supernatant was analysed by LC-MS/MS using C18 reversed-phase columns and variable mobile phase mixtures. The substances were quantified via the peak heights or areas from extracted ion chromatograms of specific selected ion monitoring experiments.
(§4) The plasma concentration/time plots determined were used to calculate the pharmacokinetic parameters such as AUC, Cmax, t1/2 (terminal half-life), F (bioavailability), MRT (mean residence time) and CL (clearance), by means of a validated pharmacokinetic calculation program.
(§5) Since the substance quantification was performed in plasma, it was necessary to determine the blood/plasma distribution of the substance in order to be able to adjust the pharmacokinetic parameters correspondingly.
(§6) For this purpose, a defined amount of substance was incubated in K3 EDTA whole blood of the species in question in a rocking roller mixer for 20 min. After centrifugation at 1000 g, the plasma concentration was measured (by means of LC-MS/MS; see above) and determined by calculating the ratio of the Cblood/Cplasma value.

[2] = biological target: T1, recombinant guanylate cyclase reporter cell line (Rattus norvegicus, UniProt P20595); experiment: Effect on a recombinant guanylate cyclase reporter cell line; type: cell-based
T1 construct: expressed in transfected cells; CHO by own knowledge of the cited Wunder et al. 2005
T1 sequence (P20595 1-619): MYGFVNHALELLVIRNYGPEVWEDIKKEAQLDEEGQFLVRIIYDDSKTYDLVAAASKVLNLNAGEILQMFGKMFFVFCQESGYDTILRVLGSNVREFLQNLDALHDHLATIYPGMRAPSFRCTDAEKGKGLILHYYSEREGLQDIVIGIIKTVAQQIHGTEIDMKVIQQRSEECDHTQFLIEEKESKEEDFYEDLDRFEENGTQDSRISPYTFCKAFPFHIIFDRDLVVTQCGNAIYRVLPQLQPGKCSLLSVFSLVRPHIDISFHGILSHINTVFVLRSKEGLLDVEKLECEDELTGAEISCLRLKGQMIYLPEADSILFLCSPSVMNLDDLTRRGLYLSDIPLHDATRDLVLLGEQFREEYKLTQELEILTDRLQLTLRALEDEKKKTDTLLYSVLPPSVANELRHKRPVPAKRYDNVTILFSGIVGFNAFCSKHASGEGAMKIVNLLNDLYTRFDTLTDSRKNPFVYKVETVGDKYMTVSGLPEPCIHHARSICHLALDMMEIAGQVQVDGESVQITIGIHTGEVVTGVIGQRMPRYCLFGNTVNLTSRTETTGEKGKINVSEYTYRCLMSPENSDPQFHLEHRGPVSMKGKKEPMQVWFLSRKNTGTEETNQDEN
T1 sequence (P19686 1-690 partner): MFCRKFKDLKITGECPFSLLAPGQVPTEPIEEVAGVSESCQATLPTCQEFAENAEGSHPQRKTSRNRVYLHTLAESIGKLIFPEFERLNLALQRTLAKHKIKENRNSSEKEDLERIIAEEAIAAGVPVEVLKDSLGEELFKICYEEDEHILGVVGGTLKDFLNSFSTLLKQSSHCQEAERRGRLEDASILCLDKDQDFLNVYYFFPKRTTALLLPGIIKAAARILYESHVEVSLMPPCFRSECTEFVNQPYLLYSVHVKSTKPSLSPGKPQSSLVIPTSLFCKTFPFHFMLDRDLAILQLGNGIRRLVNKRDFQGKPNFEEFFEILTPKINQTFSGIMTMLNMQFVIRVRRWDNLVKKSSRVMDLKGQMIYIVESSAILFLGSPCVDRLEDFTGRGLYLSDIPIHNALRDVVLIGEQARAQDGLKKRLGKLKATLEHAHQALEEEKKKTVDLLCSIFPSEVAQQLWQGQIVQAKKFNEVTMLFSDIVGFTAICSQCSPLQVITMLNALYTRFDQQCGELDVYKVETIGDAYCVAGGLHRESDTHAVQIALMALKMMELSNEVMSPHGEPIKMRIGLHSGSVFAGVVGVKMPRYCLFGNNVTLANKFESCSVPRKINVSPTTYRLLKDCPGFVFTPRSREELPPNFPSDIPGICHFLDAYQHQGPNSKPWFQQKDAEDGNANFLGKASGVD
Procedure: B-1. Effect on a Recombinant Guanylate Cyclase Reporter Cell Line
The cellular activity of the compounds according to the invention was determined using a recombinant guanylate cyclase reporter cell line, as described in F. Wunder et al., Anal. Biochem. 339, 104-112 (2005).

[3] = Pharmacokinetic parameters following intravenous and oral administration in dogs; type: in vivo, female beagles; details: for half-life: read-out: t½ (converted)
Procedure: as §1, §2, §3, §4, §5, §6

[4] = male, Wistar, rat, plasma, iv, intravenous administration
[5] = male, Wistar, rat, plasma, iv, intravenous administration, read-out: MRT
[6] = male, Wistar, rat, plasma, po, oral administration (p.o.), read-out: MRT
[7] = male, Wistar, rat, plasma, po, oral administration (p.o.)
[8] = female, beagle, dog, plasma, intravenous administration (i.v.)
[9] = female, beagle, dog, plasma, oral administration (p.o.)

AUCnorm ([1]; intravenous administration) [kg·h/L] | clearance [1, 4] [mL/min/kg] | MRT [1, 5] [h] | half-life [1, 4] [h] | MRT [1, 6] [h] | half-life [1, 7] [h] | AUCnorm ([1]; oral administration (p.o.)) [kg·h/L] | F ([1]; oral administration (p.o.)) [%] | EC50 [2] [nM] | MEC (minimum effective concentration) [2] [nM] | Structure (SMILES) | other results
1.77 | 9.33 | 2.24 | 1.64 | 6.28 | 3.24 | 0.57 | 31.4 | 9.2 | 2.3 | CC(C)CN1CCN(c2ccc(-c3ccc(Cl)cc3N3CCCC(n4ncc(C(=O)O)c4C(F)F)C3)cc2)CC1 (single isomer, unassigned) [Example 1, 1-[1-{4-Chloro-4′-[4-(2-methylpropyl)piperazin-1-yl][1,1′-biphenyl]-2-yl}piperidin-3-yl]-5-(difluoromethyl)-1H-pyrazole-4-carboxylic acid hydrochloride] | 
1.40 | 12 | 2.62 | 2.09 | 5.91 | 3.02 | 0.84 | 59.9 | 3.2 | 0.3 | CCCN1CCN(c2ccc(-c3ccc(Cl)cc3N3CCCC(n4ncc(C(=O)O)c4C(F)F)C3)cc2)CC1 (single isomer, unassigned) [Example 4, 1-{1-[4-Chloro-4′-(4-propylpiperazin-1-yl)[biphenyl]-2-yl]piperidin-3-yl}-5-(difluoromethyl)-1H-pyrazole-4-carboxylic acid hydrochloride] | 
1.23 | 13.5 | 2.88 | 2.43 | 7.53 | 3.76 | 0.70 | 58.2 | 3.6 | <0.3 | O=C(O)c1cnn(C2CCCN(c3cc(Cl)ccc3-c3ccc(N4CCN(CC5CC5)CC4)cc3)C2)c1C(F)F (single isomer, unassigned) [Example 5, 1-(1-{4-Chloro-4′-[4-(cyclopropylmethyl)piperazin-1-yl][biphenyl]-2-yl}piperidin-3-yl)-5-(difluoromethyl)-1H-pyrazole-4-carboxylic acid hydrochloride] | 
2.29 |  |  |  |  |  | 2.11 | 91.7 | 19.3 | 1.6 | O=C(O)c1cnn(C2CCCN(c3cc(Cl)ccc3-c3ccc(N4CCN(CC(F)(F)F)CC4)cc3)C2)c1C(F)F (single isomer, unassigned) [Example 6, 1-[1-[5-Chloro-2-[4-[4-(2,2,2-trifluoroethyl)piperazin-1-yl]phenyl]phenyl]-3-piperidyl]-5-(difluoromethyl)pyrazole-4-carboxylic acid] | CLplasma ([1]; intravenous administration): 7.33 mL/min/kg; MRT ([1]; intravenous administration): 4.16 h; t½ ([1]; intravenous administration): 5.13 h; MRT ([1]; oral administration (p.o.)): 14.2 h; t½ ([1]; oral administration (p.o.)): 7.37 h
7.23 |  | 4.41 | 3.83 | 7.32 |  | 4.04 | 56.1 | 13.7 | 1.6 | O=C(O)c1cnn(C2CCCN(c3cc(Cl)ccc3-c3ccc(N4CCN(CC(F)(F)F)CC4)cc3)C2)c1C(F)F (single isomer, unassigned) [Example 7, 1-[1-[5-Chloro-2-[4-[4-(2,2,2-trifluoroethyl)piperazin-1-yl]phenyl]phenyl]-3-piperidyl]-5-(difluoromethyl)pyrazole-4-carboxylic acid] | CLplasma ([1]; intravenous administration): 2.33 mL/min/kg; t½ ([1]; oral administration (p.o.)): 3.63 h
 |  |  |  |  |  |  |  | 40 | 6.5 | CC(C)CN1CCN(c2ccc(-c3ccc(Cl)cc3N3CCCC(n4ncc(C(=O)O)c4C(F)(F)F)C3)cc2)CC1 (single isomer, unassigned) [Example 8, 1-[1-{4-Chloro-4′-[4-(2-methylpropyl)piperazin-1-yl][1,1′-biphenyl]-2-yl}piperidin-3-yl]-5-(trifluoromethyl)-1H-pyrazole-4-carboxylic acid] | 
1.37 | 12.2 | 2.39 | 1.89 | 4.04 | 3.41 | 0.52 | 37.4 | 10.3 | 2.0 | O=C(O)c1cnn(C2CCCN(c3cc(Cl)ccc3-c3ccc(N4CCN(CC5CC5)CC4)cc3)C2)c1C(F)(F)F (single isomer, unassigned) [Example 10, 1-[1-[5-Chloro-2-[4-[4-(cyclopropylmethyl)piperazin-1-yl]phenyl]phenyl]-3-piperidyl]-5-(trifluoromethyl)pyrazole-4-carboxylic acid hydrochloride] | 
 |  |  |  |  |  |  |  | 5.2 | 0.6 | O=C(O)c1cnn(C2CCCN(c3cc(Cl)ccc3-c3ccc(N4CCN(CC(F)(F)F)CC4)cc3)C2)c1C(F)(F)F (single isomer, unassigned) [Example 11, 1-[1-[5-Chloro-2-[4-[4-(2,2,2-trifluoroethyl)piperazin-1-yl]phenyl]phenyl]-3-piperidyl]-5-(trifluoromethyl)pyrazole-4-carboxylic acid] | 
0.77 | 21.7 | 2.78 | 2.33 | 8.4 | 3.6 | 0.63 | 81.8 |  |  | O=C(O)c1cnn(-c2cccc(-c3cc(Cl)ccc3-c3ccc(N4CCN(CC5CC5)CC4)cc3)n2)c1C(F)(F)F [Comparative Example 174 (WO2012/058132), reference compound] | MRT [3, 8]: 7.23 h; clearance ([3]; female, beagle, dog, plasma, intravenous administration (i.v.), read-out: CLplasma (converted)): 3.33 mL/min/kg; half-life [3, 8]: 10.8 h; MRT [3, 9]: 6.1 h; half-life [3, 9]: 7.05 h; AUCnorm ([3]; intravenous administration (i.v.)): 5.00 kg·h/L; AUCnorm ([3]; oral administration (p.o.)): 2.08 kg·h/L; F ([3]; oral administration (p.o.)): 41.6%
